Reference: patent US20240254109A1, “SALT CONTAINING PIPERAZINE POLYCYCLIC DERIVATIVE, CRYSTAL FORM THEREOF, PREPARATION METHOD THEREFOR, AND USE THEREOF” (Shanghai Hansoh Biomedical Co., Ltd., priority 2021, published 2024)

Legend:
Format in all cases: physicochemical
[1] = Stability study of salt (5 days and 10 days, HPLC related substances)
Experimental: 2.1.3 Stability Study of Salt
Hydrochloride and p-toluenesulfonate of N-(trans-3-(2-(4-(2,3-dichlorophenyl)piperazin-1-yl)ethyl)cyclobutyl)oxazole-2-carboxamide were weighed about 1 mg, respectively, and then placed under light (5000 lux), high temperature (60° C.), high humidity (92.50 RH), high temperature and high humidity (50° C. and 75% RH) for 5 days and 10 days, then a diluent DMSO was added to prepare a solution with salt concentration of about 1 mg/mL.
The chromatographic peak area normalization method was used to calculate the changes of related substances.

[2] = Crystal form stability study of hydrochloride for 30 days
Experimental: 9. Crystal Form Stability Study of Hydrochloride for 30 Days
The 30 days stability of hydrochloride of N-(trans-3-(2-(4-(2,3-dichlorophenyl)piperazin-1-yl)ethyl)cyclobutyl)oxazole-2-carboxamide under four conditions of 60° C. (closed), 40° C. & RH 75% (open), 25° C./RH 92.5% (open) and light (5000±500 Lux) was detected, which provided scientific basis for the production, packaging, storage and transportation conditions of drugs.
The diluent 80% methanol solution was added to prepare a solution containing about 0.5 mg/mL hydrochloride. The mixture was sonicated for 30 min to produce a clear solution. 1 mL of the solution was filtered and measured by HPLC. See “2.3.4” for the HPLC analysis method. The content of related substances was calculated according to the peak area normalization method, and the results are shown in Table 32 below.

[3] = Hygroscopicity study of salt (DVS)
Description: 2.1.4 Hygroscopicity Study of Salt
The hygroscopicity of a drug refers to the characteristics of the drug's ability or degree of water absorption at a certain temperature and humidity. […] (DVS) was used to characterize the ability of drugs to absorb water under different humidity conditions. The instrument parameters are detailed in the table below.

[4] = Solubility of hydrochloride in different media; conditions: 37° C.
Experimental: 2.1.5 Solubility of Hydrochloride in Different Media
1.0 mg of compound was weighed into a 2 mL glass bottle, then 1 mL of dissolving medium was added respectively. The glass bottle was shaken overnight on an electrothermal constant temperature shaking tank, and the temperature was set to 37° C. After 24 hours, the sample solution was filtered with a […] mixed water fiber filter membrane, and the subsequent filtrate was taken to test its content by HPLC. HPLC detection methods are described in “Stability Study Conditions”.

[5] = GWGS-5 d (high temperature and high humidity)
[6] = GWGS-10 d (high temperature and high humidity)
[7] = high temperature, light, high humidity, high temperature and high humidity, 5 and 10 days
[8] = WS-30 d (high temperature and high humidity)

For `Cl.O=C(N[C@H]1C[C@H](CCN2CCN(c3cccc(Cl)c3Cl)CC2)C1)c1ncco1` [N-(trans-3-(2-(4-(2,3-dichlorophenyl)piperazin-1-yl)ethyl)cyclobutyl)oxazole-2-carboxamide hydrochloride], the “RRT 1.000 Area %” value ([1]; 0 d) was 99.619%, the “RRT 1.050 Area %” value ([1]; 0 d) was 0.153% and the “RRT 1.200 Area %” value ([1]; 0 d) was 0.163%. The “RRT 1.550 Area %” value ([1]; 0 d) was 0.065%, the “total Area % (related substances)” value ([1]; 0 d) was 0.381% and the “RRT 0.220 Area %” value ([1]; GS-5 d (high humidity)) was 0.055%. For the same compound, the “RRT 1.000 Area %” value ([1]; GS-5 d (high humidity)) was 99.556%, the “RRT 1.050 Area %” value ([1]; GS-5 d (high humidity)) was 0.160% and the “RRT 1.200 Area %” value ([1]; GS-5 d (high humidity)) was 0.161%. The “RRT 1.550 Area %” value ([1]; GS-5 d (high humidity)) was 0.069%, the “total Area % (related substances)” value ([1]; GS-5 d (high humidity)) was 0.444% and the “RRT 1.000 Area %” value ([1]; GS-10 d (high humidity)) was 99.619%. For the same compound, the “RRT 1.050 Area %” value ([1]; GS-10 d (high humidity)) was 0.153%, the “RRT 1.200 Area %” value ([1]; GS-10 d (high humidity)) was 0.163% and the “RRT 1.550 Area %” value ([1]; GS-10 d (high humidity)) was 0.065%. For the same compound, the “total Area % (related substances)” value ([1]; GS-10 d (high humidity)) was 0.381%, the “RRT 1.000 Area %” value ([1]; GW-5 d (high temperature)) was 99.604% and the “RRT 1.050 Area %” value ([1]; GW-5 d (high temperature)) was 0.164%. For the same compound, the “RRT 1.200 Area %” value ([1]; GW-5 d (high temperature)) was 0.163%, the “RRT 1.550 Area %” value ([1]; GW-5 d (high temperature)) was 0.068% and the “total Area % (related substances)” value ([1]; GW-5 d (high temperature)) was 0.396%. For the same compound, the “RRT 1.000 Area %” value ([1]; GW-10 d (high temperature)) was 99.590%, the “RRT 1.050 Area %” value ([1]; GW-10 d (high temperature)) was 0.170% and the “RRT 1.200 Area %” value ([1]; GW-10 d (high temperature)) was 0.163%. The “RRT 1.550 Area %” value ([1]; GW-10 d (high temperature)) was 0.077%, the “total Area % (related substances)” value ([1]; GW-10 d (high temperature)) was 0.410% and the “RRT 1.000 Area %” value [1, 5] was 99.603%. The “RRT 1.050 Area %” value [1, 5] was 0.144%, the “RRT 1.200 Area %” value [1, 5] was 0.165% and the “RRT 1.550 Area %” value [1, 5] was 0.088%. For the same compound, the “total Area % (related substances)” value [1, 5] was 0.397%, the “RRT 1.000 Area %” value [1, 6] was 99.614% and the “RRT 1.050 Area %” value [1, 6] was 0.157%. The “RRT 1.200 Area %” value [1, 6] was 0.161%, the “RRT 1.550 Area %” value [1, 6] was 0.067% and the “total Area % (related substances)” value [1, 6] was 0.386%. The “RRT 1.000 Area %” value ([1]; GZ-5 d (light)) was 99.617%, the “RRT 1.050 Area %” value ([1]; GZ-5 d (light)) was 0.148% and the “RRT 1.200 Area %” value ([1]; GZ-5 d (light)) was 0.160%. The “RRT 1.550 Area %” value ([1]; GZ-5 d (light)) was 0.075%, the “total Area % (related substances)” value ([1]; GZ-5 d (light)) was 0.383% and the “RRT 1.000 Area %” value ([1]; GZ-10 d (light)) was 99.604%. For the same compound, the “RRT 1.050 Area %” value ([1]; GZ-10 d (light)) was 0.162%, the “RRT 1.200 Area %” value ([1]; GZ-10 d (light)) was 0.158% and the “RRT 1.550 Area %” value ([1]; GZ-10 d (light)) was 0.077%. The “total Area % (related substances)” value ([1]; GZ-10 d (light)) was 0.396%, the growth of impurities [1, 7] was “no significant growth of impurities” and the stability of salt [1, 7] was “good stability”. For the same compound, the “RRT 1.00 Area %” value ([2]; 0 d) was 99.44%, the “RRT 1.07 Area %” value ([2]; 0 d) was 0.07% and the “RRT 1.93 Area %” value ([2]; 0 d) was 0.42%. The “RRT 2.43 Area %” value ([2]; 0 d) was 0.07%, the “RRT 1.00 Area %” value ([2]; GS-30 d (high humidity)) was 99.43% and the “RRT 1.07 Area %” value ([2]; GS-30 d (high humidity)) was 0.11%. The “RRT 1.93 Area %” value ([2]; GS-30 d (high humidity)) was 0.39%, the “RRT 2.43 Area %” value ([2]; GS-30 d (high humidity)) was 0.07% and the “RRT 1.00 Area %” value ([2]; GW-30 d (high temperature)) was 99.51%. For the same compound, the “RRT 1.07 Area %” value ([2]; GW-30 d (high temperature)) was 0.08%, the “RRT 1.93 Area %” value ([2]; GW-30 d (high temperature)) was 0.41% and the “RRT 1.00 Area %” value ([2]; GZ-30 d (light)) was 99.43%. The “RRT 1.07 Area %” value ([2]; GZ-30 d (light)) was 0.09%, the “RRT 1.93 Area %” value ([2]; GZ-30 d (light)) was 0.41% and the “RRT 2.43 Area %” value ([2]; GZ-30 d (light)) was 0.08%. For the same compound, the “RRT 1.00 Area %” value [2, 8] was 99.46%, the “RRT 1.07 Area %” value [2, 8] was 0.09% and the “RRT 1.93 Area %” value [2, 8] was 0.38%. For the same compound, the “RRT 2.43 Area %” value [2, 8] was 0.07%, the “hygroscopicity (DVS)” value [3] was “slightly hygroscopic” and the “solubility in different pH buffers (dependence)” value ([4]; 24 hours) was “pH-dependent”. For the same compound, the solubility ([4]; acidic conditions) was “better solubility”, the solubility ([4]; neutral or alkaline conditions) was “poor solubility” and the “solubility in water compared with free base” value ([4]; water) was “greatly improved”.
